According to patent US20140212502A1, “NANO- AND MICRO-BUBBLES WITH ULTRASOUND-TRIGGERED RELEASE AND IMAGING FUNCTIONALITIES” (NATIONAL YANG-MING UNIVERSITY, priority 2013, published 2014):

What was measured:
[1] = Release test with and without sonication, confocal microscope observation of leakage and dispersion; type: physicochemical; conditions: sonication 1 MHz, 1 W/cm^2, duty ratio 20%, 20 min
Protocol: FIG. 5 is a diagram showing the confocal microscope observation for CPT-loaded CHC/SPIO NBs (FIG. 5(a)) and FITC-loaded CHC/SPIO NBs (FIG. 5(b), indicated by arrows). […] FIGS. 5(d) and (e) show the confocal microscope observation for CPT-loaded CHC/SPIO NBs after the release test without sonication and with sonication (ultrasonic frequency: 1 MHz, power density: 1 W/cm^2, duty ratio: 20%) for 20 min, respectively. […] Scale bar 5 μm.
The confocal photographs of the as-received CHC/SPIO MBs loaded with hydrophobic agent (CPT, blue fluorescence) and hydrophilic agent (FITC, green fluorescence) are shown in FIGS. 5(a) and 5(b), respectively. […] This implies that CHC/SPIO MBs can carry both hydrophobic and hydrophilic agents, and the encapsulation ability of CHC/SPIO MBs for CPT (a hydrophobic agent) was better than that for FITC (a hydrophilic agent). […] This was not observed for the CPT-containing medium (without CHC) under the same sonication for 20 min.

[2] = system: breast tumor cells (MDA-MB-231); experiment: In vitro cytotoxicity, cell viability by MTT assay; type: cell-based; conditions: with sonication for 20 min, then 24 hr culture; 75 μL NB suspension or CPT 1.3 μg/mL
Protocol: FIG. 6 is a diagram showing the cell viability of breast tumor cells (MDA-MB-231) cultured under different conditions. In FIG. 6(a), the control group was performed on the cells cultured without adding the model drug (CPT) and performing sonication. In FIG. 6(b), cells were sonicated for 20 min. In FIG. 6(c), cells were cultured with the medium containing 75 μL of CPT-loaded CHC/SPIO NB suspension without sonication for 20 min. In FIG. 6(d), cells were cultured with the medium containing 75 μL of CPT-loaded CHC/SPIO NB suspension with sonication for 20 min. In FIG. 6(e), cells were cultured with CPT-containing medium (CPT/medium concentration: 1.3 μg/mL) under sonication for 20 min. […] After above treatments, the cell mediums were removed and the cells were washed with PBS. Then, fresh medium was added and further cultured for 24 hr. The cell viability was measured by MTT assay.
Thus, CPT molecules could efficiently access tumor cells. Moreover, the amphiphilic CHC molecules from ruptured bubbles also might be helpful to increase transmembrane permeation.

CC[C@@]1(O)C(=O)OCc2c1cc1n(c2=O)Cc2cc3ccccc3nc2-1 [CPT, camptothecin]
dispersion of CPT in hydrophilic medium [1]: not well-dispersed under sonication
cytotoxicity / cell viability [2]: higher viability than those treated with CPT-loaded CHC/SPIO NBs under sonication
